Assay results taken from patent US7138361B2, “Herbicidal heterocycles” (E. I. du Pont de Nemours and Company, priority 2000, dated 2006).

Columns and labels:
Type in all cases: in vivo
rice (Oryza saliva) = test: Test B preemergence
In short: (§1)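 Ratings on a 0 to 100 visual scale (100 complete control) compare treated plants with controls 13 to 15 days after application. Treatments were pre- or postemergence sprays of compound in non-phytotoxic solvent with surfactant.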

[1] = system: giant foxtail (Setaria faberii); test: Test B preemergence
In short: as §1

[2] = system: morning glory (Ipomoea hederacea); test: Test B preemergence
In short: as §1

[3] = system: crabgrass (Digitaria sanguinalis); test: Test B preemergence
In short: as §1

[4] = system: Surinam grass (Brachiaria decumbens); test: Test B preemergence
In short: as §1

[5] = system: lambsquarters (Chenopodium album); test: Test B preemergence
In short: as §1

[6] = system: velvetleaf (Abutilon theophrasti); test: Test B preemergence
In short: as §1

[7] = system: cocklebur (Xanthium strumarium); test: Test B preemergence
In short: as §1

[8] = system: pigweed (Amaranthus retroflexus); test: Test B preemergence
In short: as §1

[9] = system: barnyardgrass (Echinochloa crus-galli); test: Test B preemergence
In short: as §1

corn (Zea mays) = test: Test B preemergence
In short: as §1

Sunflower = test: Test C preemergence; conditions: Rate 250 g/ha, scale 0 to 100, 0 no effect, 100 complete control
Nightshade = test: Test C preemergence; conditions: Rate 500 g/ha, visual evaluation after 12 to 14 days
soybean (Glycine max) = test: Test C preemergence; conditions: for Plant response rating (0 to 100), Soybean: Rate 500 g/ha, visual evaluation after 12 to 14 days
In short: (§2)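 Visual 0–100 rating vs controls (0 = no effect, 100 = complete control) at 12–14 d, greenhouse. Compounds in non-phytotoxic solvent + surfactant; pre: sprayed after seeding; post: 1–4-leaf plants, 2–18 cm.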

[10] = system: giant foxtail (Setaria faberii); test: Test C preemergence; conditions: for Plant response rating (0 to 100), Foxtail, Giant: visual evaluation after 12 to 14 days
In short: as §2

[11] = system: crabgrass (Digitaria sanguinalis); test: Test C preemergence; conditions: for Plant response rating (0 to 100), Crabgrass: visual evaluation after 12 to 14 days
In short: as §2

[12] = system: Surinam grass (Brachiaria decumbens); test: Test C preemergence; conditions: for Plant response rating (0 to 100), Surinam grass: visual evaluation after 12 to 14 days
In short: as §2

[13] = system: bermudagrass (Cynodon dactylon); test: Test C preemergence; conditions: for Plant response rating (0 to 100 where 0 is no effect and 100 is complete control), Bermudagrass: visual evaluation after 12 to 14 days
In short: as §2

kochia (Kochia scoparia) = test: Test C preemergence; conditions: for Plant response rating (0 to 100), Kochia: visual evaluation after 12 to 14 days
In short: as §2

[14] = system: woolly cupgrass (Eriochloa villosa); test: Test C preemergence; conditions: for Plant response rating (0 to 100), Cupgrass, Woolly: visual evaluation after 12 to 14 days
In short: as §2

[15] = system: cocklebur (Xanthium strumarium); test: Test C preemergence; conditions: for Plant response rating (0 to 100), Cocklebur: visual evaluation after 12 to 14 days
In short: as §2

[16] = system: pigweed (Amaranthus retroflexus); test: Test C preemergence; conditions: for Plant response rating (0 to 100), Pigweed: Rate 500 g/ha, visual evaluation after 12 to 14 days
In short: as §2

[17] = Preemergence, Rate 500 g/ha, scale 0 to 100, 0 no effect, 100 complete control
[18] = preemergence, Rate 125 g/ha, scale of 0 to 100 where 0 is no effect and 100 is complete control, 13 to 15 days
[19] = Rate 125 g/ha, scale 0 to 100, 0 no effect, 100 complete control
[20] = preemergence, Rate 250 g/ha, scale 0 to 100, 0 no effect, 100 complete control
[21] = Rate 62 g/ha, scale 0 to 100, 0 no effect, 100 complete control
[22] = preemergence, Rate 62 g/ha, scale 0 to 100

CCC(C)c1ccn(C2CCN(c3cccc(OC(C)C)c3)C2=O)n1 (stereo not drawn) [Compound 83]
Plant response rating, Rice (rice (Oryza saliva); [17]): 100 | Plant response rating, Rice (rice (Oryza saliva); [18]): 20 | Plant response rating, Foxtail, Giant [1, 17]: 100 | Plant response rating, Foxtail, Giant [1, 18]: 100 | Plant response rating, Morningglory [2, 18]: 0 | Plant response rating, Crabgrass [3, 17]: 100 | Plant response rating, Crabgrass [3, 18]: 100 | Plant response rating, Surinam grass [4, 17]: 90 | Plant response rating, Surinam grass [4, 18]: 70 | Plant response rating, Lambsquarters [5, 17]: 100 | Plant response rating, Lambsquarters [5, 18]: 100 | Plant response rating, Velvetleaf [6, 17]: 0 | Plant response rating, Velvetleaf [6, 18]: 0 | Plant response rating, Cocklebur [7, 17]: 0 | Plant response rating, Cocklebur [7, 18]: 0 | Plant response rating, Pigweed [8, 17]: 100 | Plant response rating, Pigweed [8, 18]: 100 | Plant response rating, Barnyardgrass [9, 17]: 100 | Plant response rating, Barnyardgrass [9, 18]: 100 | Plant response rating, Corn (corn (Zea mays); [17]): 20 | Plant response rating, Corn (corn (Zea mays); [18]): 20 | Plant response rating, Sunflower (Sunflower): 0 | Plant response rating (0 to 100), Nightshade (Nightshade): 100 | Plant response rating, Soybean (soybean (Glycine max); [19]): 0 | Plant response rating (0 to 100), Soybean (soybean (Glycine max); preemergence): 10 | Plant response rating, Soybean (soybean (Glycine max); [20]): 0 | Plant response rating, Foxtail, Giant [10, 21]: 0 | Plant response rating, Foxtail, Giant [10, 19]: 100 | Plant response rating (0 to 100), Foxtail, Giant ([10]; preemergence, Rate 250 g/ha): 60 | Plant response rating (0 to 100), Foxtail, Giant ([10]; preemergence, Rate 500 g/ha): 0 | Plant response rating, Crabgrass [11, 21]: 100 | Plant response rating, Crabgrass [11, 19]: 100 | Plant response rating (0 to 100), Crabgrass ([11]; preemergence, Rate 250 g/ha): 100 | Plant response rating (0 to 100), Crabgrass ([11]; preemergence, Rate 500 g/ha): 100 | Plant response rating, Surinam grass [12, 21]: 40 | Plant response rating, Surinam grass [12, 19]: 50 | Plant response rating (0 to 100), Surinam grass ([12]; preemergence, Rate 250 g/ha): 90 | Plant response rating (0 to 100), Surinam grass ([12]; preemergence, Rate 500 g/ha): 100 | Plant response rating, Bermudagrass [13, 21]: 100 | Plant response rating, Bermudagrass [13, 19]: 100 | Plant response rating (0 to 100 where 0 is no effect and 100 is complete control), Bermudagrass ([13]; preemergence, Rate 250 g/ha): 100 | Plant response rating (0 to 100 where 0 is no effect and 100 is complete control), Bermudagrass ([13]; preemergence, Rate 500 g/ha): 100 | Plant response rating, Kochia (kochia (Kochia scoparia); [21]): 60 | Plant response rating, Kochia (kochia (Kochia scoparia); [19]): 90 | Plant response rating (0 to 100), Kochia (kochia (Kochia scoparia); preemergence, Rate 250 g/ha): 90 | Plant response rating (0 to 100), Kochia (kochia (Kochia scoparia); preemergence, Rate 500 g/ha): 100 | Plant response rating, Cupgrass, Woolly [14, 21]: 80 | Plant response rating, Cupgrass, Woolly [14, 19]: 90 | Plant response rating (0 to 100), Cupgrass, Woolly ([14]; preemergence, Rate 250 g/ha): 100 | Plant response rating (0 to 100), Cupgrass, Woolly ([14]; preemergence, Rate 500 g/ha): 100 | Plant response rating, Cocklebur [15, 21]: 0 | Plant response rating, Cocklebur [15, 19]: 0 | Plant response rating (0 to 100), Cocklebur ([15]; preemergence, Rate 250 g/ha): 30 | Plant response rating (0 to 100), Cocklebur ([15]; preemergence, Rate 500 g/ha): 0 | Plant response rating, Pigweed [16, 19]: 50 | Plant response rating (0 to 100), Pigweed ([16]; preemergence): 100 | Plant response rating, Pigweed [16, 20]: 100

COc1cc(N2CCC(n3ccc(C(C)C)n3)C2=O)ccc1C (stereo not drawn) [Compound 85]
Plant response rating, Rice (rice (Oryza saliva); [17]): 100 | Plant response rating, Rice (rice (Oryza saliva); [18]): 100 | Plant response rating, Foxtail, Giant [1, 17]: 100 | Plant response rating, Foxtail, Giant [1, 18]: 80 | Plant response rating, Morningglory [2, 17]: 100 | Plant response rating, Morningglory [2, 18]: 90 | Plant response rating, Crabgrass [3, 17]: 100 | Plant response rating, Crabgrass [3, 18]: 100 | Plant response rating, Surinam grass [4, 17]: 90 | Plant response rating, Surinam grass [4, 18]: 60 | Plant response rating, Lambsquarters [5, 17]: 100 | Plant response rating, Lambsquarters [5, 18]: 100 | Plant response rating, Velvetleaf [6, 17]: 100 | Plant response rating, Velvetleaf [6, 18]: 20 | Plant response rating, Cocklebur [7, 17]: 90 | Plant response rating, Cocklebur [7, 18]: 40 | Plant response rating, Pigweed [8, 17]: 100 | Plant response rating, Pigweed [8, 18]: 100 | Plant response rating, Barnyardgrass [9, 17]: 100 | Plant response rating, Barnyardgrass [9, 18]: 100 | Plant response rating, Corn (corn (Zea mays); [17]): 30 | Plant response rating, Corn (corn (Zea mays); [18]): 20 | Plant response rating, Sunflower (Sunflower): 70 | Plant response rating (0 to 100), Nightshade (Nightshade): 100 | Plant response rating, Soybean (soybean (Glycine max); [19]): 40 | Plant response rating, Soybean (soybean (Glycine max); [22]): 20 | Plant response rating (0 to 100), Soybean (soybean (Glycine max); preemergence): 100 | Plant response rating, Soybean (soybean (Glycine max); [20]): 40 | Plant response rating, Foxtail, Giant [10, 19]: 100 | Plant response rating, Foxtail, Giant [10, 22]: 60 | Plant response rating (0 to 100), Foxtail, Giant ([10]; preemergence, Rate 250 g/ha): 100 | Plant response rating (0 to 100), Foxtail, Giant ([10]; preemergence, Rate 500 g/ha): 100 | Plant response rating, Crabgrass [11, 19]: 100 | Plant response rating, Crabgrass [11, 22]: 100 | Plant response rating (0 to 100), Crabgrass ([11]; preemergence, Rate 250 g/ha): 100 | Plant response rating (0 to 100), Crabgrass ([11]; preemergence, Rate 500 g/ha): 100 | Plant response rating, Surinam grass [12, 19]: 30 | Plant response rating, Surinam grass [12, 22]: 30 | Plant response rating (0 to 100), Surinam grass ([12]; preemergence, Rate 250 g/ha): 100 | Plant response rating (0 to 100), Surinam grass ([12]; preemergence, Rate 500 g/ha): 100 | Plant response rating, Bermudagrass [13, 19]: 100 | Plant response rating, Bermudagrass [13, 22]: 100 | Plant response rating (0 to 100 where 0 is no effect and 100 is complete control), Bermudagrass ([13]; preemergence, Rate 250 g/ha): 100 | Plant response rating (0 to 100 where 0 is no effect and 100 is complete control), Bermudagrass ([13]; preemergence, Rate 500 g/ha): 100 | Plant response rating, Kochia (kochia (Kochia scoparia); [19]): 100 | Plant response rating, Kochia (kochia (Kochia scoparia); [22]): 100 | Plant response rating (0 to 100), Kochia (kochia (Kochia scoparia); preemergence, Rate 250 g/ha): 100 | Plant response rating (0 to 100), Kochia (kochia (Kochia scoparia); preemergence, Rate 500 g/ha): 100 | Plant response rating, Cupgrass, Woolly [14, 19]: 100 | Plant response rating, Cupgrass, Woolly [14, 22]: 100 | Plant response rating (0 to 100), Cupgrass, Woolly ([14]; preemergence, Rate 250 g/ha): 100 | Plant response rating (0 to 100), Cupgrass, Woolly ([14]; preemergence, Rate 500 g/ha): 100 | Plant response rating, Cocklebur [15, 19]: 60 | Plant response rating, Cocklebur [15, 22]: 60 | Plant response rating (0 to 100), Cocklebur ([15]; preemergence, Rate 250 g/ha): 60 | Plant response rating (0 to 100), Cocklebur ([15]; preemergence, Rate 500 g/ha): 60 | Plant response rating, Pigweed [16, 19]: 100 | Plant response rating, Pigweed [16, 22]: 100 | Plant response rating (0 to 100), Pigweed ([16]; preemergence): 100 | Plant response rating, Pigweed [16, 20]: 100
